These results are taken from patent US20150218222A1, “Medicaments” (ARMO BioSciences, Inc., priority 2005, published 2015).

Entries after “also recorded” stand apart in the source; their conditions may differ. Where no end group is shown, it is not given here.

Holding throughout (format): in vivo
The subject of test [1] is rat incisional wounds. Put plainly: Macroscopic scar quality (VAS) of day seventy scars from rat incisional wounds. As to conditions: FIG. 9. From the text:
(§1) Wound index assesses the quality of the wound and gives an assessment based upon the following parameters: wound width (scored out of 10; 1 being a very narrow wound and 10 being a very wide wound); total cellularity of the wound (scored out of 5; 1 being a wound containing a low number of cells and 5 being a wound with a high number of cells); inflammatory cell number (scored out of 5; 1 being a low number of inflammatory cells and 5 being a high number of inflammatory cells); and epithelial covering (scored 0 for complete coverage and 1 for incomplete coverage). The final wound index score is derived by adding the scores for each parameter. A higher wound index value indicates a wound of low quality, whilst a lower wound index value represents a wound of relatively higher quality. • v) The macroscopic quality of scars. This was assessed using a rat macroscopic scar assessment protocol as follows. Macroscopic appearance was scored using a Visual Analogue Scale (VAS) consisting of a 10 cm line representing a scale from 0 corresponding to normal skin to 10 corresponding to a bad scar. A mark was made on the 10 cm line based on an overall assessment of the scar taking into account parameters such as the height, width, contour and colour of the scar. The best scars (typically small width and colour, height and contour like normal skin) were scored towards the normal skin end of the scale (the left hand side of the VAS line) and bad scars (typically large width, raised with uneven contours and whiter colour) were scored towards the bad scar end of the scale (the right hand side of the VAS line). The marks were measured from the left hand side to provide the final value for the scar assessment in centimetres (to 1 decimal place).
(§2) Rat incisional wounds formed in accordance with well-accepted experimental models (previously described in Shah et al. 1994) were treated with peptide Ala-Tyr-Met-Thr-Met-Lys-Ile-Arg-Asn (Sequence ID No. 2) at concentrations of 50, 125, 250 […] ng/100 μl. Treated and control wounds were harvested at three days post-wounding, and scars derived from treated and control wounds harvested at seventy days post-wounding.
(§3) Four wounds were made on each experimental animal (rat), of which two were treated with the trial concentrations of the peptide. The peptide was administered by intradermal injection on the day of wounding and at one day following wounding.
Scars for analysis were harvested from experimental animals killed on the seventieth day post-wounding.
Macroscopic quality of scars was assessed using macroscopic scar assessment sheets scored by two observers in accordance with the protocols described above.
Statistical analysis was carried out using a one-factor analysis of variance (ANOVA) followed by the Mann-Whitney U (MWU) test. […]

Test [2] relates to rat incisional wounds. Put plainly: Microscopic wound width by image analysis of day three rat incisional wounds. The following applies: for wound width at the mid-points of incisional wounds: FIG. 3; for wound width at the top of incisional wounds: FIG. 2. As to the method: (§4) The effects of the peptide on wound healing and scar formation were assessed with reference to the following parameters: • i) The macroscopic quality of the wounds. This was assessed using a rat macroscopic wound assessment protocol as follows. Macroscopic appearance was scored using a Visual Analogue Scale (VAS) consisting of a 10 cm line representing a scale from 0 (denoted by a mark at 0 cm) indicating a “good” wound to 10 (denoted by a mark at 10 cm) indicating a “poor” wound. In assessing the quality of the wound a mark representative of the score conferred was made on the 10 cm line based on the gape and quality of healing of the wound. The best-healed wounds were scored towards the good wound end of the scale (the left hand side of the VAS line) and the poorly healed ones were scored towards the poor wound end of the scale (the right hand side of the VAS line). The marks awarded were measured from the left hand side to provide the final value for the wound assessment in centimetres (to 1 decimal place). • ii) The microscopic width of wounds. The microscopic width of wounds was measured using image analysis of histological sections of wounds. Wounds were analysed using a Leica DM RXA Microscope and a Leica QWin Image Analyser. Linear wound width was measured with a straight line from the left wound margin (where the epidermis begins to thicken) to the right wound margin (where the epidermis begins to thicken). • iii) The re-epithelialisation of wounds. The extent of re-epithelialisation of wounds was measured using image analysis of histological sections of wounds. The percentage re-epithelialisation was calculated by first measuring the non-epithelialised wound diameter. The non-epithelialised wound length was measured with a straight line from the left hand non-epithelialised wound edge to the right hand non-epithelialised wound edge. The non-epithelialised wound edges were identified as the current position of the epithelium in the wound during healing. The re-epithelialisation width was then calculated by subtracting the non re-epithelialised width from the wound width. The percentage re-epithelialisation was then calculated accordingly. • iv) The microscopic quality of the wounds. This was assessed using microscopic Wound Index sheets analysed in accordance with the protocol described below. Evaluation of the microscopic quality of the wounds included an assessment of inflammatory response present in the wounds, as well as assessment of the cellularity of the wounds.
as §2, §3
The experimental animals for wound analysis were killed on the third day post-wounding, and wounds harvested for histology.
Wound widths and percentage re-epithelialisation of incisions were measured by Image Analysis in accordance with the protocols described above. […]

The subject of test [3] is rat incisional wounds. Put plainly: Microscopic Wound Index (wound width, cellularity, inflammation, epithelial covering) of day three rat incisional wounds. As to conditions: for wound index score / wound width score (Wound Index parameter): day three, combined scores of 3 observers; for wound index score: FIG. 5; for wound width score (Wound Index parameter): FIG. 6. As to the method:
as §4
as §1, with “The best scars (typically small width and colour, height and contour like normal skin) were scored towards the normal skin end of the scale (the left hand side of the VAS line) and bad scars (typically large width, raised with uneven contours and whiter colour) were scored towards the bad scar end of the scale (the right hand side of the VAS line). The marks were measured from the left hand side to provide the final value for the scar assessment in centimetres (to 1 decimal place).” left out

Test [4] deals with rat incisional wounds. Kind of test: Percentage re-epithelialisation by image analysis of day three rat incisional wounds. As to conditions: FIG. 4. As to the method:
The effects of the peptide on wound healing and scar formation were assessed with reference to the following parameters: • i) The macroscopic quality of the wounds. This was assessed using a rat macroscopic wound assessment protocol as follows. Macroscopic appearance was scored using a Visual Analogue Scale (VAS) consisting of a 10 cm line representing a scale from 0 (denoted by a mark at 0 cm) indicating a “good” wound to 10 (denoted by a mark at 10 cm) indicating a “poor” wound. In assessing the quality of the wound a mark representative of the score conferred was made on the 10 cm line based on the gape and quality of healing of the wound. The best-healed wounds were scored towards the good wound end of the scale (the left hand side of the VAS line) and the poorly healed ones were scored towards the poor wound end of the scale (the right hand side of the VAS line). The marks awarded were measured from the left hand side to provide the final value for the wound assessment in centimetres (to 1 decimal place). • ii) The microscopic width of wounds. The microscopic width of wounds was measured using image analysis of histological sections of wounds. Wounds were analysed using a Leica DM RXA Microscope and a Leica QWin Image Analyser. Linear wound width was measured with a straight line from the left wound margin (where the epidermis begins to thicken) to the right wound margin (where the epidermis begins to thicken). • iii) The re-epithelialisation of wounds. The extent of re-epithelialisation of wounds was measured using image analysis of histological sections of wounds. The percentage re-epithelialisation was calculated by first measuring the non-epithelialised wound diameter. The non-epithelialised wound length was measured with a straight line from the left hand non-epithelialised wound edge to the right hand non-epithelialised wound edge. […] The re-epithelialisation width was then calculated by subtracting the non re-epithelialised width from the wound width. The percentage re-epithelialisation was then calculated accordingly. • iv) The microscopic quality of the wounds. […]

In test [5] the test system is rat incisional wounds. Kind of test: Macroscopic wound quality (VAS) of day three rat incisional wounds. The following applies: day 0 and 1, p<0.05 vs naïve wounds, FIG. 1. As to the method:
The effects of the peptide on wound healing and scar formation were assessed with reference to the following parameters: • i) The macroscopic quality of the wounds. This was assessed using a rat macroscopic wound assessment protocol as follows. Macroscopic appearance was scored using a Visual Analogue Scale (VAS) consisting of a 10 cm line representing a scale from 0 (denoted by a mark at 0 cm) indicating a “good” wound to 10 (denoted by a mark at 10 cm) indicating a “poor” wound. In assessing the quality of the wound a mark representative of the score conferred was made on the 10 cm line based on the gape and quality of healing of the wound. The best-healed wounds were scored towards the good wound end of the scale (the left hand side of the VAS line) and the poorly healed ones were scored towards the poor wound end of the scale (the right hand side of the VAS line). The marks awarded were measured from the left hand side to provide the final value for the wound assessment in centimetres (to 1 decimal place). • ii) The microscopic width of wounds. The microscopic width of wounds was measured using image analysis of histological sections of wounds. Wounds were analysed using a Leica DM RXA Microscope and a Leica QWin Image Analyser. […] The extent of re-epithelialisation of wounds was measured using image analysis of histological sections of wounds. […]

The mark [6] stands for this setting: 125 ng/100 μl, p<0.01 vs naïve wounds.

In the case of “AYMTMKIRN [peptide of Sequence ID No. 2, peptide based on the C-terminal portion of interleukin 10 (IL-10)]”, the “macroscopic visual analogue (VAS) score, scar quality” value in test [1] (50 ng/100 μl, p<0.05 vs naïve control wounds) was “significantly improved scarring”; in test [1] (125 ng/100 μl, p<0.05 vs naïve control wounds) it was “significantly improved scarring”; in test [1] (250 ng/100 μl, p<0.01 vs naïve and diluent control wounds, 2 observers), “significant improvement in macroscopic quality”; in test [1] (500 ng/100 μl, p<0.05 vs naïve control wounds), “significantly improved scarring”. Also, the “wound width at the mid-points of incisional wounds” value was “significant decrease in wound width” in test [2] (50 ng/100 μl, p<0.05 vs naïve wounds); “significant decrease in wound width” in test [2] (setting [6]); “significant decrease in wound width” in test [2] (250 ng/100 μl, p<0.01 vs naïve, p<0.05 vs diluent control wounds). Also, the “wound width at the top of incisional wounds” value was “significant decrease in wound width” in test [2] (setting [6]) and “significant decrease in wound width” in test [2] (250 ng/100 μl, p<0.01 vs naïve wounds). The wound index score result was “lower wound index scores than did control wounds” in test [3] (50 ng/100 μl), “lower wound index scores than did control wounds” in test [3] (125 ng/100 μl) and “lower wound index scores than did control wounds; also recorded: lowest wound index scores” in test [3] (250 ng/100 μl). In addition, the “wound width score (Wound Index parameter)” value in test [3] (50 ng/100 μl), in test [3] (125 ng/100 μl) and in test [3] (250 ng/100 μl) was “lower wound width scores than controls” each time. Also, in test [3] (day three incisional wounds, combined observers, FIG. 7), the “cellularity of treated wounds” value is reported as “did not reduce cellularity of treated wounds”. For the same sequence, the “inflammatory response in treated wounds” value in test [3] (day three incisional wounds, combined observers, FIG. 8) is “did not reduce cellularity of treated wounds, or cause a reduction of the inflammatory response”. In addition, the “percentage of the tops of incisional wounds covered by re-epithelialisation” value in test [4] (50 ng/100 μl) is given as “appeared to exhibit an increase in the extent of re-epithelialisation”; in test [4] (125 ng/100 μl), “appeared to exhibit an increase in the extent of re-epithelialisation”; in test [4] (250 ng/100 μl, p<0.01 vs naïve, p<0.05 vs diluent alone) it was “significant increase in the extent of re-epithelialisation”. Further, the “macroscopic visual analogue (VAS) score, wound quality” value in test [5] (125 ng/100 μl intradermal) and in test [5] (250 ng/100 μl intradermal) was “significant improvement in the macroscopic quality” in each case.
